From patent US5308864A, “6-(hydronaphtyl-1-ethyl)-4-hydroxy-3,4,5,6-tetrahydro-2H-pyran-2-ones and the corresponding hydroxy acids” (British Bio-Technology Limited, priority 1989, dated 1994)

Experiments:
HMG-CoA reductase = biological target: T1, HMG-CoA reductase (Rattus norvegicus, UniProt P51639); test: In vitro determination of inhibitory potential of HMG-CoA reductase inhibitors (Test A, rat liver microsomal enzyme); type: biochemical; conditions: HMG-CoA reductase from rat liver microsomes; inhibitors converted to sodium salts
T1 construct: from tissue; host or cells: rat liver microsomes (cholestyramine-induced)
T1 sequence (P51639 1-887): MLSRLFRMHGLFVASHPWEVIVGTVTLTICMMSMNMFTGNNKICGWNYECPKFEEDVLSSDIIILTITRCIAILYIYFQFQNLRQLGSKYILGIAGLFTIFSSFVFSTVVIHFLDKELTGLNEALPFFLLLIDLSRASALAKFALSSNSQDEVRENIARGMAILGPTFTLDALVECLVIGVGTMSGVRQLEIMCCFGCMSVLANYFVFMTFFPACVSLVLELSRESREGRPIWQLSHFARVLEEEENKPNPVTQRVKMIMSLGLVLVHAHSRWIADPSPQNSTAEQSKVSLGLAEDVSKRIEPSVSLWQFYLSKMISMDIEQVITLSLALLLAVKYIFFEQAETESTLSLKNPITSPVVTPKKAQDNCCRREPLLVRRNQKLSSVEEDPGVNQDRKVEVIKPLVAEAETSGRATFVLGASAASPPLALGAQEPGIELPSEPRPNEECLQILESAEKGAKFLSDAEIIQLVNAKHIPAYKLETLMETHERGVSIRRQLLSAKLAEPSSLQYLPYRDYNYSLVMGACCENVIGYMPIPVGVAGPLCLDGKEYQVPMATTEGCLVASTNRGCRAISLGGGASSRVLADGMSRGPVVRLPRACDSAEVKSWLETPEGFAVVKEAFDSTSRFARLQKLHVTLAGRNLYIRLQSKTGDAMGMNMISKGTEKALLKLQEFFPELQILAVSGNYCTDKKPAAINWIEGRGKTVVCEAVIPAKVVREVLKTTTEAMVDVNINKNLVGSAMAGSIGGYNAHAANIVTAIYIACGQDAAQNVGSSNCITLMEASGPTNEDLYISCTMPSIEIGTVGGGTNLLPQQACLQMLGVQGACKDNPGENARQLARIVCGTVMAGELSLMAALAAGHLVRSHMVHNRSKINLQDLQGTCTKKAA
Description: HMG-CoA reductase was induced in rats by feeding a normal diet supplemented with 3% cholestyramine resin for one week prior to sacrifice. […] Briefly, the livers were immediately placed in ice-cold buffer I (see below) and homogenised in a Potter-Elvehjem type glass/TEFLON homogeniser (10 passes at 1000 rpm). […] The supernatant was centrifuged at 100,000×g for 75 minutes, the microsomal pellet resuspended in buffer II (see below) and centrifuged at 100,000×g for 75 minutes. The resultant pellet was stored at -70° C. until required for assay purposes.
Membrane bound enzyme isolated as above is used for determining the activity of inhibitors. The assay is performed in a total volume of 300 μl in 100 mM KPO4 pH 7.2 buffer, containing 3 mM MgCl2, 5 mM glucose-6-phosphate, 10 mM reduced glutathione, 1mM NADP, 1 unit glucose-6-phosphate dehydrogenase, and 1 mg/ml BSA, with resuspended enzyme. Putative inhibitors are converted to sodium salts, then dissolved in dimethylsulphoxide and 10 μl aliquots added to the incubation.
The assay is pre-incubated at 37° C. for 10 minutes and initiated by the addition of 0.1 μCi 3-hydroxy-3-methyl-[3-^14 C]glutaryl coenzyme A (52 Ci/Mole) followed by incubating the complete reaction at 37° C. for 10 minutes. At the end of this period the reaction is stopped by adding 300 μl of a 10 mM mevalonolactone solution in 0.1 M hydrochloric acid and the mevalonic acid product allowed to lactonise for a further period of 30 minutes. The product is then isolated by chromatography using Bio-Rex 5 resin and the enzyme activity quantified by liquid scintillation spectrophotometry.
Appropriate controls are included in the assay and IC50 values obtained by graphical means.

[1] = test system: cholesterol biosynthesis in Human hepatoma (HEP G2) cells; test: Assay for the inhibition of cholesterol biosynthesis in cultured cells (Test B, HEP G2); type: cell-based; conditions: 2-14C-acetate incorporation, HEP G2, 3 hours at 37° C.
Description: ASSAY FOR THE INHIBITION OF CHOLESTEROL BIOSYNTHESIS IN CULTURED CELLS
Human hepatoma (HEP G2) or fibroblastic (HES-9) cells were grown in Dulbecco's modified Eagle's medium (DMEM) with 10% foetal calf serum, in 6 cm tissue culture dishes until approaching confluence (approximately 4 days). The medium was changed to DMEM with 1% foetal calf serum 24 hours prior to experimentation.
Test compounds that are salts were dissolved in aqueous, physiological buffer. Lactones and esters were dissolved in dimethylsulphoxide.
Test compound were added to the cell monolayers concurrently with 2-^14 C-acetate (5 μCi/ml of incubation volume); control samples receiving vehicle together with radioisotope. The incubation was continued for 3 hours at 37° C.
The IC50 for inhibition of sterol synthesis by test compounds was measured from plots of % inhibition (compared to controls) versus log concentration, using at least 5 concentrations of inhibitor.
This assay, therefore, measures the ability of test substances to inhibit intracellular synthesis of cholesterol.

[2] = HepG2, inhibition of sterol synthesis

SMILES	IC50 (HMG-CoA reductase)	IC50 [1, 2]	IC50 ([1]; HepG2, after hydrolysis, inhibition of sterol synthesis)
C/C=C\[C@@H]1C[C@H](OC(=O)[C@@H](C)CC)[C@@H]2[C@@H](CC[C@@H](O)C[C@@H](O)CC(=O)O)[C@@H](C)C=C[C@H]2C1 [Compound B, Sodium (1S,2S,4aR,6S,8S,8aS,3'R,5'R,2"S)-7'-(1,2,4a, 5,6,7,8,8a-octahydro-2-methyl-8[(2"-methyl-1"-oxobutyl)oxy]-6-[(Z)-prop-1-enyl]-1-naphthalenyl)-3',5'-dihydroxyheptanoate]	15 nM	60 nM	–
C/C=C/[C@@H]1C[C@H](OC(=O)C(C)(C)CC)[C@@H]2[C@@H](CC[C@@H](O)C[C@@H](O)CC(=O)O)[C@@H](C)C=C[C@H]2C1 [Compound N, Sodium (1S,2S,4aR,6S,8S,8aS,3'R,5'R)-7'-(1,2,4a,5,6,7,8,8a-octahydro-2-methyl-8-[(2"-dimethyl-1"-oxobutyl)oxy]-6-[(E)-prop-1enyl]-1-naphthalenyl)-3',5'-dihydroxyheptanoate]	3 nM	7 nM	–
CC[C@H](C)C(=O)O[C@H]1C[C@@H](C)C[C@@H]2C=C[C@H](C)[C@H](CC[C@@H]3C[C@@H](O)CC(=O)O3)[C@@H]12 [Dihydromevinolin, reference compound]	30 nM	40 nM	–
C/C=C/[C@@H]1C[C@H](OC(=O)[C@@H](C)CC)[C@@H]2[C@@H](CC[C@@H]3C[C@@H](O)CC(=O)O3)[C@@H](C)C=C[C@H]2C1 [Compound G, (1S,2S,4aR,6S,8S,8aS,4'R,6'R,2"S)6'-{2-(1,2,4a,5,6,7,8,8a-octahydro-2-methyl-8[(2"-methyl-1"-oxobutyl)oxy]-6-[(E)-prop-1-enyl]-1-naphthalenyl)ethyl}-tetrahydro-4'-hydroxy-2H-pyran-2'-one]	–	–	25 nM
